# Source: publication PMC2213567 (The Journal of General Physiology, 2008)
# Target: α4β2δ GABAAR (Mus musculus (alpha4); Rattus norvegicus (beta2); Homo sapiens (delta), UniProt P63138+Q9D6F4)
# Experiment: ultrafast agonist application, outside-out macropatch
# Format: cell-based
# Sequence of α4β2δ GABAAR (Q9D6F4 36-552): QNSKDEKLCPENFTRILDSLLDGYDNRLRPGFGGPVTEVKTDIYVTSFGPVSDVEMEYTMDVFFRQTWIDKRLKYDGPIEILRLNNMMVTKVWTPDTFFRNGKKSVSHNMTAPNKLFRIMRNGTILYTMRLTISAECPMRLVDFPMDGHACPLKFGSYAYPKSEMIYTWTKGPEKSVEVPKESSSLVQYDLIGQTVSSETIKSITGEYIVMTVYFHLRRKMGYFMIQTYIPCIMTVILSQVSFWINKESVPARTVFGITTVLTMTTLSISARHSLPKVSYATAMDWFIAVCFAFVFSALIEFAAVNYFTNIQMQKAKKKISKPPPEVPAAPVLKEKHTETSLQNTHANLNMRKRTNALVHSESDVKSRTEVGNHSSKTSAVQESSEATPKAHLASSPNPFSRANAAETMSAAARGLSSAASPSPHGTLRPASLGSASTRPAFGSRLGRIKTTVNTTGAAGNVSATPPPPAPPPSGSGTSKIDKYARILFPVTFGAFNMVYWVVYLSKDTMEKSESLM
# Sequence of α4β2δ GABAAR (P63138 26-474): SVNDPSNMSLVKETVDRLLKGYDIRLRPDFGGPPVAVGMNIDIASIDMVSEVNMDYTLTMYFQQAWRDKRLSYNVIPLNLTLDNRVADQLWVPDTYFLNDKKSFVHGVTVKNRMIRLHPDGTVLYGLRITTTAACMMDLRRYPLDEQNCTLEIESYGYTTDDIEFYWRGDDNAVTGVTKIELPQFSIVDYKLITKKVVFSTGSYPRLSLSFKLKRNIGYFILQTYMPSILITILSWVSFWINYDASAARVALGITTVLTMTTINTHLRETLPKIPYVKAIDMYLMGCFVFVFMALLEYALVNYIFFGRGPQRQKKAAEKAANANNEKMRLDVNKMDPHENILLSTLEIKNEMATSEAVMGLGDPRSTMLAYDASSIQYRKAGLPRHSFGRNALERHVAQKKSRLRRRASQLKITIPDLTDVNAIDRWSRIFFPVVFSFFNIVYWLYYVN
# Sequence of α4β2δ GABAAR (O14764 25-452 partner): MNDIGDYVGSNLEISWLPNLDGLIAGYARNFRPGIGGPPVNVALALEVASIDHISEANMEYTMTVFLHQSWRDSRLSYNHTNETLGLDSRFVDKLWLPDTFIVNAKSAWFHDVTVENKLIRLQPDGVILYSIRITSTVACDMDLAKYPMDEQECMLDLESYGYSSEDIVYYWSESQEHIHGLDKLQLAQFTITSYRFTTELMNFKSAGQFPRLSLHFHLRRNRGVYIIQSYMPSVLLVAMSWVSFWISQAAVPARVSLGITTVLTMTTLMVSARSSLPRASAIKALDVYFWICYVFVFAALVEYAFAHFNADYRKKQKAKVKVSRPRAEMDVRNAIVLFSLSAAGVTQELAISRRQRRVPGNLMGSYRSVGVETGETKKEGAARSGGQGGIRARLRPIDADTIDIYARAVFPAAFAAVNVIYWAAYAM
structure (smiles),measurement,value
"Oc1noc2c1CCNC2 [THIP, 4,5,6,7-tetrahydroisoxazolo[5,4-c]pyridin-3(2H)-one]",Kd,683 µM
